Broadly, the IC50 is the concentration that inhibits the measured activity by half.

Drawing on article PMC6900016, “Synthesis of Indomorphan Pseudo‐Natural Product Inhibitors of Glucose Transporters GLUT‐1 and ‐3” (Angewandte Chemie (International Ed. in English), 2019), this text covers IC50 for 26 compounds.

This assay has as its system HCT116. The experiment in a line: cells. More on the design: 2-deoxyglucose uptake inhibition, semi-automated resazurin/diaphorase fluorescence read-out of 2DG6P. To be noted: Homo sapiens, HCT-116, 0.5 h; 2DG uptake. The procedure:
Resazurin-based 2DG uptake assay (semi-automated high throughput) All buffers, reagents and steps were identical with those described for the manual screening Washing and [compound left out] addition steps were done using an automated cell washer or a multidrop device, respectively. Screening was performed in a 384-well plates. 15,000 HCT116 cells/well seeded into 384-well black-walled, clear bottomed plates (CellBIND, Corning) and incubated overnight. Compounds were added at 30 µM (final concentration for screening or serial dilutions staring from 30 µM for IC50 determinations) from DMSO stocks using the acoustic nanoliter dispenser ECHO 520. Fluorescence intensity was read from the bottom with a SpectraMax Paradigm Multi-Mode Microplate Reader (Molecular devices) using SUPPORTING INFORMATION 259 control (which was set to 100 %) and cells without 2DG (set to 0 %) using Graph Pad Prism 5 or 6 software and IC50 values were determined using a four-parameter fit. The observed difference in the obtained IC50 values for Glupin in the automated screening vs. manually performed assay is most likely attributed to the minituarization that is required for high-troughput screening and usually requires different plate format (384 vs. 96-well plates) and different cell number. In this case, the automated assay was performed in 384-well plates (vs. 96-well plates for the manual assay) with 15,000 cells per well (vs. 40,000 cells per well in the 96-well plates). For kinetic measurements, 15,000 cells were seeded into black CellBIND 384-well plates (Corning) and allowed to attach overnight. Then, the plates were washed 3X with KRB buffer containing 0.1%BSA and treated with different concentrations of 2DG (0-60mM) and Glupin (0-1µM) for 30s to 30min. The uptake was determined using the resazurin/diaphorase system as described above. 2DG uptake was stopped by aspirating the 2DG solution followed by quick wash with ice-cold KRB buffer (0.1 % BSA). Km and Vmax were determined by fitting the data according to Michaelis-Menten using non-linear fitting. The glucose uptake assay monitored the inhibition of 2‐deoxyglucose (2DG) uptake as described by Yamamoto et al.25 Briefly, 2DG uptake is determined by quantification of the 2DG‐6‐phosphate (2DG6P) that accumulates inside the cells by using the diaphorase‐resazurin/‐resorufin system (see Figure S7 a).
`CCOC(=O)Cn1c2c(c3cc(OC)ccc31)CC1CC2C(OC)CN1C(=O)c1cccnc1SC` (racemic) [5aa, (±)-Ethyl 2-(5,10-dimethoxy-3-(2-(methylthio)nicotinoyl)-1,2,3,4,5,6-hexahydro-7H-2,6-methanoazocino[5,4-b]indol-7-yl)acetate]: the IC50 is 4220 ± 3460 nM.

For the compound `CCOC(=O)Cn1c2c(c3cc(C(=O)N4CCOCC4)ccc31)CC1CC2C(OC)CN1C(=O)c1cccnc1SC` (racemic) [5ab, (±)-Ethyl 2-(5-methoxy-3-(2-(methylthio)nicotinoyl)-10-(morpholine-4-carbonyl)-1,2,3,4,5,6-hexahydro-7H-2,6-methanoazocino[5,4-b]indol-7-yl)acetate], the IC50 was over 30000 nM.

As to `COC(=O)Cn1c2c(c3ccccc31)CC1CC2C(OC)CN1C(=O)c1cccnc1SC` (racemic) [5ad, (±)-methyl 2-(5-methoxy-3-(2-(methylthio)nicotinoyl)-3,4,5,6-tetrahydro-1H-2,6-methanoazocino[5,4-b]indol-7(2H)-yl)acetate], the IC50 was 89 ± 32 nM.

For `COC1CN(C(=O)c2cccnc2SC)C2Cc3c(n(CC(=O)Oc4ccccc4)c4ccccc34)C1C2` (racemic) [5ae, (±)-phenyl 2-(5-methoxy-3-(2-(methylthio)nicotinoyl)-3,4,5,6-tetrahydro-1H-2,6-methanoazocino[5,4-b]indol-7(2H)-yl)acetate], the IC50 was found to be 220 ± 80 nM.

With `CCOC(=O)Cn1c2c(c3ccccc31)CC1CC2C(OC)CN1C(=O)c1cccnc1Cl` (racemic) [5af, (±)-Ethyl 2-(3-(2-chloronicotinoyl)-5-methoxy-1,2,3,4,5,6-hexahydro-7H-2,6-methanoazocino[5,4-b]indol-7-yl)acetate], the IC50 came out at 93 ± 41 nM.

Regarding `CCOC(=O)Cn1c2c(c3ccccc31)CC1CC2C(OC)CN1C(=O)c1cccnc1S(C)(=O)=O` (racemic) [5ag, (±)-Ethyl 2-(5-methoxy-3-(2-(methylsulfonyl)nicotinoyl)-1,2,3,4,5,6-hexahydro-7H-2,6-methanoazocino[5,4-b]indol-7-yl)acetate], the concentration for half-maximal inhibition (IC50) is 1700 ± 700 nM.

As to `CCOC(=O)Cn1c2c(c3ccccc31)CC1CC2C(OC)CN1C(=O)c1cccnc1Sc1ccccc1` (racemic) [5ah, (±)-Ethyl 2-(5-methoxy-3-(2-(phenylthio)nicotinoyl)-1,2,3,4,5,6-hexahydro-7H-2,6-methanoazocino[5,4-b]indol-7-yl)acetate], the IC50 was 140 ± 70 nM.

Turning to `CCCSc1ncccc1C(=O)N1CC(OC)C2CC1Cc1c2n(CC(=O)OCC)c2ccccc12` (racemic) [5ai, (±)-Ethyl 2-(5-methoxy-3-(2-(propylthio)nicotinoyl)-1,2,3,4,5,6-hexahydro-7H-2,6-methanoazocino[5,4-b]indol-7-yl)acetate], the IC50 was 190 ± 120 nM.

Take `CCOC(=O)Cn1c2c(c3ccccc31)CC1CC2C(OC)CN1C(=O)c1cccnc1Br` (racemic) [5aj, (±)-Ethyl 2-(3-(2-bromonicotinoyl)-5-methoxy-1,2,3,4,5,6-hexahydro-7H-2,6-methanoazocino[5,4-b]indol-7-yl)acetate]: the IC50 turned out to be 180 ± 60 nM.

`CCOC(=O)Cn1c2c(c3ccccc31)CC1CC2C(OC)CN1C(=O)c1cccnc1OCC` (racemic) [5ak, (±)-Ethyl 2-(3-(2-ethoxynicotinoyl)-5-methoxy-1,2,3,4,5,6-hexahydro-7H-2,6-methanoazocino[5,4-b]indol-7-yl)acetate]: the IC50 was 220 ± 70 nM.

Take `CCOC(=O)Cn1c2c(c3ccccc31)CC1CC2C(OC)CN1C(=O)c1cccnc1N1CCOCC1` (racemic) [5al, (±)-Ethyl 2-(5-methoxy-3-(2-morpholinonicotinoyl)-1,2,3,4,5,6-hexahydro-7H-2,6-methanoazocino[5,4-b]indol-7-yl)acetate]: the IC50 came out at 1400 ± 200 nM.

As to `CCOC(=O)Cn1c2c(c3ccccc31)CC1CC2C(OC)CN1C(=O)c1cccnc1NC(=O)C(C)(C)C` (racemic) [5am, (±)-Ethyl 2-(5-methoxy-3-(2-pivalamidonicotinoyl)-1,2,3,4,5,6-hexahydro-7H-2,6-methanoazocino[5,4-b]indol-7-yl)acetate], the IC50 is over 30000 nM.

In the case of `CCOC(=O)Cn1c2c(c3ccccc31)CC1CC2C(OC)CN1C(=O)c1ccncc1` (racemic) [5ao, (±)-Ethyl 2-(3-isonicotinoyl-5-methoxy-1,2,3,4,5,6-hexahydro-7H-2,6-methanoazocino[5,4-b]indol-7-yl)acetate], the IC50 is 13000 ± 3000 nM.

As for `CCOC(=O)Cn1c2c(c3ccccc31)CC1CC2C(OC)CN1C(=O)c1cncnc1` (racemic) [5ap, (±)-Ethyl 2-(5-methoxy-3-(pyrimidine-5-carbonyl)-1,2,3,4,5,6-hexahydro-7H-2,6-methanoazocino[5,4-b]indol-7-yl)acetate], the IC50 came out at 14000 ± 5000 nM.

With `CCOC(=O)Cn1c2c(c3ccccc31)CC1CC2C(OC)CN1C(=O)c1cccs1` (racemic) [5aq, (±)-Ethyl 2-(5-methoxy-3-(thiophene-2-carbonyl)-1,2,3,4,5,6-hexahydro-7H-2,6-methanoazocino[5,4-b]indol-7-yl)acetate], the IC50 was 3000 ± 400 nM.

As to `CCOC(=O)Cn1c2c(c3ccccc31)CC1CC2C(OC)CN1C(=O)c1ccc(C)o1` (racemic) [5at, (±)-Ethyl 2-(5-methoxy-3-(5-methylfuran-2-carbonyl)-1,2,3,4,5,6-hexahydro-7H-2,6-methanoazocino[5,4-b]indol-7-yl)acetate], the IC50 stood at 8600 ± 4000 nM.

Take `CCOC(=O)Cn1c2c(c3ccccc31)CC1CC2C(OC(C)=O)CN1C(=O)c1cccnc1SC` (racemic) [5b, (±)-Ethyl 2-(5-acetoxy-3-(2-(methylthio)nicotinoyl)-1,2,3,4,5,6-hexahydro-7H-2,6-methanoazocino[5,4-b]indol-7-yl)acetate]: the IC50 was 53 ± 23 nM.

`CCOC(=O)Cn1c2c(c3ccccc31)CC1CC2C(O)CN1C(=O)c1cccnc1SC` (racemic) [5c, (±)-Ethyl 2-(5-hydroxy-3-(2-(methylthio)nicotinoyl)-1,2,3,4,5,6-hexahydro-7H-2,6-methanoazocino[5,4-b]indol-7-yl)acetate]: the IC50 is 130 ± 50 nM.

Turning to `CCCOC1CN(C(=O)c2cccnc2SC)C2Cc3c(n(CC(=O)OCC)c4ccccc34)C1C2` (racemic) [5d, (±)-Ethyl 2-(3-(2-(methylthio)nicotinoyl)-5-propoxy-1,2,3,4,5,6-hexahydro-7H-2,6-methanoazocino[5,4-b]indol-7-yl)acetate], the IC50 worked out at 87 ± 15 nM.

As for `CCOC(=O)Cn1c2c(c3cc(O)ccc31)CC1CC2C(OC)CN1C(=O)c1cccnc1SC` (racemic) [5f, (±)-Ethyl 2-(-10-hydroxy-5-methoxy-3-(2-(methylthio)nicotinoyl)-1,2,3,4,5,6-hexahydro-7H-2,6-methanoazocino[5,4-b]indol-7-yl)acetate], the IC50 amounted to 100 ± 60 nM.

As for `CCOC(=O)Cn1c2c(c3cc(Cl)ccc31)CC1CC2C(OC)CN1C(=O)c1cccnc1SC` (racemic) [5g, (±)-Ethyl 2-(10-chloro-5-methoxy-3-(2-(methylthio)nicotinoyl)-1,2,3,4,5,6-hexahydro-7H-2,6-methanoazocino[5,4-b]indol-7-yl)acetate], the IC50 turned out to be 1400 ± 200 nM.

Turning to `CCOC(=O)Cn1c2c(c3cccc(Cl)c31)CC1CC2C(OC)CN1C(=O)c1cccnc1SC` (racemic) [5h, (±)-Ethyl 2-(8-chloro-5-methoxy-3-(2-(methylthio)nicotinoyl)-1,2,3,4,5,6-hexahydro-7H-2,6-methanoazocino[5,4-b]indol-7-yl)acetate], the IC50 worked out at 210 ± 90 nM.

For `COC1CN(C(=O)c2cccnc2SC)C2Cc3c([nH]c4ccccc34)C1C2` (racemic) [5j, (±)-(5-methoxy-1,2,4,5,6,7-hexahydro-3H-2,6-methanoazocino[5,4-b]indol-3-yl)(2-(methylthio)pyridin-3-yl)methanone], the IC50 is over 30000 nM.

As for `COC1CN(C(=O)c2cccnc2SC)C2Cc3c(n(CC(=O)OC(C)(C)C)c4ccccc34)C1C2` (racemic) [5k, (±)-tert-butyl 2-(5-methoxy-3-(2-(methylthio)nicotinoyl)-3,4,5,6-tetrahydro-1H-2,6-methanoazocino[5,4-b]indol-7(2H)-yl)acetate], the IC50 came out at 190 ± 60 nM.

For the compound `CCCOC(=O)Cn1c2c(c3ccccc31)CC1CC2C(OC)CN1C(=O)c1cccnc1SC` (racemic) [5l, (±)-Propyl 2-(-5-methoxy-3-(2-(methylthio)nicotinoyl)-3,4,5,6-tetrahydro-1H-2,6-methanoazocino[5,4-b]indol-7(2H)-yl)acetate], the IC50 came to 93 ± 35 nM.

Take `COC1CN(C(=O)c2cccnc2SC)C2Cc3c(n(CC(=O)O)c4ccccc34)C1C2` (racemic) [5n, (±)-2-(5-methoxy-3-(2-(methylthio)nicotinoyl)-1,2,3,4,5,6-hexahydro-7H-2,6-methanoazocino[5,4-b]indol-7-yl)acetic acid]: the half-inhibitory concentration (IC50) turned out to be 10000 ± 4000 nM.
